The text below walks through data of ChEMBL document CHEMBL1150232, “Microspinosamide, a new HIV-inhibitory cyclic depsipeptide from the marine sponge Sidonops microspinosa” (J Nat Prod, 2001).

The test system of assay [1] is CEM-SS. As to the kind of experiment: Cytotoxicity against human CEM-SS cells. The class given is cell-based.
For assay [2], the system named is Human immunodeficiency virus 1. As to the kind of experiment: Antiviral activity against HIV1 infected in human CEM-SS cells assessed as inhibition of virus-induced cytopathic effect by XTT assay. Type of assay: functional, organism-based. The settings on record: Human immunodeficiency virus 1, CEM-SS.

Converted amounts (≈) assume the structure as drawn.

In general, IC50 refers to the concentration needed to halve the response being measured. High values mean a need for much substance, low ones inhibition by little substance. As usually defined, the EC50 is the concentration at which the effect is half-maximal. As to `CCC(C)(C)[C@H](NC(=O)[C@H](NC(=O)[C@@H]1CCCN1C(=O)C(NC(=O)[C@@H](C)NC=O)C(O)c1ccc(Br)cc1)C(C)(C)C)C(=O)N[C@H](Cc1c[nH]c2ccccc12)C(=O)N[C@@H](CCCNC(=N)N)C(=O)N[C@H](CS(=O)(=O)O)C(=O)N[C@@H]1C(=O)N(C)[C@@H](CCC(N)=O)C(=O)N[C@H](C(C)C)C(=O)N2CCC[C@H]2C(=O)N[C@H](CC(=O)O)C(=O)O[C@@H]1C` (some centres not stated) [MICROSPINOSAMIDE], the midpoint of inhibition in assay [1], the IC50, lay at 3 µg/mL (≈ 1.74 µM). For the same molecule, in assay [2], the EC50 was found to be 0.2 µg/mL (≈ 0.116 µM).
